Measurements as given in ChEMBL document CHEMBL5715942, “A novel histone deacetylase 8 (HDAC8)-specific inhibitor PCI-34051 induces apoptosis in T-cell lymphomas” (Leukemia, 2008).
The source made the active and inactive calls. The calls are words filed in the database; no cut-off is given here.

Tests used:
Jurkat [1] = assay: Induction of apoptosis in human Jurkat cells assessed as intracellular calcium level at 0.8 uM in presence of Iodo-1 by spectrofluorimetric analysis; assay type: functional, cell-based
J.gamma1 [2] = assay: Induction of apoptosis in human J.gamma1 cells assessed as increased intracellular calcium level in presence of Iodo-1 and U73122 by spectrofluorimetric analysis; assay type: functional, cell-based
J.gamma1 [3] = assay: Induction of apoptosis in human J.gamma1 cells assessed as increased intracellular calcium level at 1 uM in presence of Iodo-1 by spectrofluorimetric analysis; assay type: functional, cell-based
J.gamma1 [4] = assay: Induction of apoptosis in human J.gamma1 cells assessed as increased intracellular calcium level at 1 uM in presence of Iodo-1 and Ionomycin by spectrofluorimetric analysis; assay type: functional, cell-based
Jurkat [5] = assay: Induction of apoptosis in human Jurkat cells assessed as increase in intracellular calcium level at 0.25 to 1 uM in presence of Iodo-1 and Ionomycin by spectrofluorimetric analysis; assay type: functional, cell-based; settings: dose 0.25-1 µM
J.gamma1 [6] = assay: Induction of apoptosis in human J.gamma1 cells at 0.2 uM incubated for 24 hrs by Annexin-V staining based flow cytometry analysis relative to control; assay type: functional
Jurkat [7] = assay: Induction of apoptosis in human Jurkat cells assessed as increased intracellular calcium level in presence of Iodo-1 and U73122 by spectrofluorimetric analysis; assay type: functional, cell-based
Jurkat [8] = assay: Induction of apoptosis in human Jurkat cells assessed as increase in intracellular calcium level in presence of Iodo-1 by spectrofluorimetric analysis; assay type: functional, cell-based; settings: dose 0.25-1 µM

SMILES | Activity (Jurkat [1]) | Activity (J.gamma1 [2]) | Activity (J.gamma1 [3]) | Activity (J.gamma1 [4]) | Activity (Jurkat [5]) | Activity (J.gamma1 [6]) | Activity (Jurkat [7]) | Activity (Jurkat [8])
COc1ccc2c(c1)CC[C@@H]1[C@@H]2CC[C@]2(C)[C@@H](NCCCCCCN3C(=O)CCC3=O)CC[C@@H]12 | inactive | – | – | – | – | – | – | –
C/C=C(/C)C(=O)O[C@H]1C(C)=C2[C@H]([C@@H]1OC(=O)CCCCCCC)[C@@](C)(OC(C)=O)C[C@H](OC(=O)CCC)[C@@]1(O)[C@H]2OC(=O)[C@@]1(C)O [THAPSIGARGIN] | – | Active | Active | Active | Active | 12% | Active | Dose-Dependent Effect
